The record followed here is patent publication US12582652B2, “3-(ethoxydifluoromethyl)-6-(5-fluoro-6-(2,2,2-trifluoroethoxy)pyridin-3-yl)-[1,2,4]triazolo[4,3-a]pyrazine as an ion channel modulator” (Praxis Precision Medicines, Inc., priority 2022, dated 2026).

Test [1] deals with T1, human NaV1.6 (Homo sapiens, UniProt Q9UQD0).
T1 construct: stably expressing either human NaV1.6 (NP_055006); expressed in transfected cells
Briefly: ATX-II activated late (persistent) INa block, PatchXpress patch clamp. The test is classed as cell-based. How it is done: HEK-293 cell lines stably expressing either human NaV1.6 (NP_055006), mouse NaV1.6 (NP_035453.2), or rat NaV1.6 (NP_062139) were used. All cells were seeded at 2×10^6 cells per Nunc T75 flask for 2 days in culture. At time of harvest for assays, the cell counts were approximately 6×10^6 cells. Cells were washed (1×) in DPBS (Hyclone, Cat #SH30028.03) for approximately 30 seconds. 1 mL of 1×0.05% Trypsin-EDTA (GIBCO Cat #25300-054) was added and swirled around to cover the bottom of the flask and was allowed to sit on the cells for approximately 4 minutes (±90% of the cells were lifted by light tapping of the flask). 10 mL of warmed media (DMEM high glucose media Hyclone, SH30022.02 supplemented with 10% Fetal Bovine Serum, 2 mM Sodium Pyruvate, 10 mM HEPES and 400 μg/mL G418) was added to inactivate the trypsin. Cells were triturated until a single cell suspension was achieved. A cell count was performed and cells were aliquoted into a 250 ml centrifuge tube at a concentration of 2×10^5/mL in +30 ml of prewarmed media. The 250 mL centrifuge tube was placed on a rocker in an incubator set at 28° C. and gently rocked for approximately 1 hour to allow cells to recover. Cell aliquots of 5 mL (1×10^6 cells) were placed in a 15 mL centrifuge tube and spun at 100×g for 2 minutes. Supernatant was removed leaving a cell pellet. 100 μL of external recording solution was added to the pellet and triturated 20 times to achieve a single cell suspension and then transferred to a 1.5 mL tube for placement in the PatchXpress® (Molecular Devices).
Compound 1 was provided as powder and prepared as 10 mM DMSO stocks in 1 dram glass vials prior to assay. Immediately prior to assay, Compound 1 was diluted with DMSO to 300×, the designated final assay concentration. Assay dilutions (1× concentration) were prepared by pipetting 3 μL of diluted Compound 1 into 897 μL of extracellular solution in a 1 mL glass shell vial. Vials were capped and vortexed until initiation of the PatchXpress® (Molecular Devices) recording protocol.
The same intracellular recording solution was used for the persistent and peak INa assays, which contained: 135 mM CsF, 10 mM CsCl, 5 mM NaCl, 10 mM HEPES, 5 mM EGTA at a pH of 7.4 (adjusted with CsOH) and a measured osmolarity of 298 mOsm (adjusted with mannitol). For the persistent INa assay, the external recording solution contained: 135 mM NaCl, 5.4 mM KCl, 5 mM glucose, 2 mM CaCl2), 1 mM MgCl2, 10 mM HEPES, and 200 nM ATX-II (sea anemone toxin, Alomone Labs; Jerusalem, Israel) at a pH of 7.4 (adjusted with NaOH) and a measured osmolarity of 300 mOsm (adjusted with mannitol). For the peak INa assays, the external recording solution contained: 100 mM NaCl, 35 mM NMDG, 5.4 mM KCl, 5 mM glucose, 2 mM CaCl2), 1 mM MgCl2, and 10 mM HEPES at a pH of 7.4 (adjusted with NaOH) and a measured osmolarity of 300 mOsm (adjusted with mannitol).
All studies were performed using the PatchXpress® (Molecular Devices) automated patch clamp platform (Molecular Devices) using the whole cell configuration. Recordings were performed at room temperature. Data were collected using Patch Commander software (Molecular Devices) and processed using DataXpress 2.0 (Molecular Devices). Cell acceptance criteria were continuously monitored by custom scripts during the recording. Acceptance criteria for all assays were: baseline peak INa>800 pA, Rseal>200 MΩ, and, where appropriate, persistent INa>100 pA. Compensation was 50% and leak subtraction was not used. Currents were filtered at 5 kHz and digitized at 32.5 kHz. Raccess and Rseal were monitored throughout the recording and cells with Raccess>10 MΩ or Rseal<200 MΩ were terminated automatically by script.
Late (persistent) current Block: The inhibition of ATX-II activated late current was measured using a 200 ms voltage step to 0 mV. Protocols used low stimulation rates (about 0.1 Hz) and negative potentials (−120 mV) to keep channels in closed (resting) states.
(The patch-clamp technique gives a direct electrical read-out from membranes.)

The test system of test [2] is Scn2a^Q54 transgenic mice. Kind of test: Spontaneous seizure frequency in Scn2aQ54 mouse model of elevated persistent sodium current. It counts as in vivo. An excerpt:
Scn2a^Q54 transgenic mice were generated as described and are maintained as a congenic line on the C57BL/6J (Jax #000664) background (B6.Q54) (Kearney et al., 2001; PMID 11166117). For experiments, F1 generation mice were produced by crossing B6.Q54 hemizygous transgenic males with SJL/J (Jax #000686) females and genotyping for the Scn2a^Q54 transgene. Experimental animals used in this study were male and female postnatal day 18-21 (P18-21) mice, with the majority being P19-P20.
Dosing solutions were freshly formulated on the morning on the study. Dosing solution contained 0.5% methylcellulose with 0.2% Tween-80 was made with 1 mL 10% Tween-80 (in ddH20) and 49 mL 0.5% methylcellulose (in ddH20) either with or without (vehicle) Compound 1 (0.3 mg/kg, 1 mg/kg, 3 mg/kg, or 10 mg/kg). Each animal received a single administration of vehicle or Compound 1 by oral gavage.
For seizure monitoring, two mice were placed into a monitoring cage (23 cm×13 cm) and two side-view cameras were placed to record baseline spontaneous seizure activity. […] After the 30-minute recording, mice were administered Compound 1 or vehicle and returned to their home cage. After 30 minutes, the two mice were returned to the monitoring cage and recorded for an additional 30 minutes to assess post-treatment seizure activity. The number of focal motor seizures with forelimb clonus and repetitive movements lasting 1-5 seconds, and generalized tonic-clonic seizures (GTCS) with rearing and falling lasting approximately 1 minute were counted. Seizures were scored offline by an observer blinded to treatment and pre/post status of the video file.
The numbers of seizures before and after treatment were counted for each animal by a reviewer blinded to treatment and pre/post status of the video record. Mice that had less than three seizures or more than 35 seizures during the baseline period were excluded from the analysis as pre-defined in the study design. Statistical analysis was conducted using two-way repeated measures ANOVA and Sidak's multiple comparisons, with p<0.05 considered statistically significant (GraphPad Prism 8.4). Change in average seizure frequency was determined by averaging each group and then computing relative change as [(avg. post−avg. pre)/avg. pre], expressed as a percentage.

T1 sequence (Q9UQD0 whole entry): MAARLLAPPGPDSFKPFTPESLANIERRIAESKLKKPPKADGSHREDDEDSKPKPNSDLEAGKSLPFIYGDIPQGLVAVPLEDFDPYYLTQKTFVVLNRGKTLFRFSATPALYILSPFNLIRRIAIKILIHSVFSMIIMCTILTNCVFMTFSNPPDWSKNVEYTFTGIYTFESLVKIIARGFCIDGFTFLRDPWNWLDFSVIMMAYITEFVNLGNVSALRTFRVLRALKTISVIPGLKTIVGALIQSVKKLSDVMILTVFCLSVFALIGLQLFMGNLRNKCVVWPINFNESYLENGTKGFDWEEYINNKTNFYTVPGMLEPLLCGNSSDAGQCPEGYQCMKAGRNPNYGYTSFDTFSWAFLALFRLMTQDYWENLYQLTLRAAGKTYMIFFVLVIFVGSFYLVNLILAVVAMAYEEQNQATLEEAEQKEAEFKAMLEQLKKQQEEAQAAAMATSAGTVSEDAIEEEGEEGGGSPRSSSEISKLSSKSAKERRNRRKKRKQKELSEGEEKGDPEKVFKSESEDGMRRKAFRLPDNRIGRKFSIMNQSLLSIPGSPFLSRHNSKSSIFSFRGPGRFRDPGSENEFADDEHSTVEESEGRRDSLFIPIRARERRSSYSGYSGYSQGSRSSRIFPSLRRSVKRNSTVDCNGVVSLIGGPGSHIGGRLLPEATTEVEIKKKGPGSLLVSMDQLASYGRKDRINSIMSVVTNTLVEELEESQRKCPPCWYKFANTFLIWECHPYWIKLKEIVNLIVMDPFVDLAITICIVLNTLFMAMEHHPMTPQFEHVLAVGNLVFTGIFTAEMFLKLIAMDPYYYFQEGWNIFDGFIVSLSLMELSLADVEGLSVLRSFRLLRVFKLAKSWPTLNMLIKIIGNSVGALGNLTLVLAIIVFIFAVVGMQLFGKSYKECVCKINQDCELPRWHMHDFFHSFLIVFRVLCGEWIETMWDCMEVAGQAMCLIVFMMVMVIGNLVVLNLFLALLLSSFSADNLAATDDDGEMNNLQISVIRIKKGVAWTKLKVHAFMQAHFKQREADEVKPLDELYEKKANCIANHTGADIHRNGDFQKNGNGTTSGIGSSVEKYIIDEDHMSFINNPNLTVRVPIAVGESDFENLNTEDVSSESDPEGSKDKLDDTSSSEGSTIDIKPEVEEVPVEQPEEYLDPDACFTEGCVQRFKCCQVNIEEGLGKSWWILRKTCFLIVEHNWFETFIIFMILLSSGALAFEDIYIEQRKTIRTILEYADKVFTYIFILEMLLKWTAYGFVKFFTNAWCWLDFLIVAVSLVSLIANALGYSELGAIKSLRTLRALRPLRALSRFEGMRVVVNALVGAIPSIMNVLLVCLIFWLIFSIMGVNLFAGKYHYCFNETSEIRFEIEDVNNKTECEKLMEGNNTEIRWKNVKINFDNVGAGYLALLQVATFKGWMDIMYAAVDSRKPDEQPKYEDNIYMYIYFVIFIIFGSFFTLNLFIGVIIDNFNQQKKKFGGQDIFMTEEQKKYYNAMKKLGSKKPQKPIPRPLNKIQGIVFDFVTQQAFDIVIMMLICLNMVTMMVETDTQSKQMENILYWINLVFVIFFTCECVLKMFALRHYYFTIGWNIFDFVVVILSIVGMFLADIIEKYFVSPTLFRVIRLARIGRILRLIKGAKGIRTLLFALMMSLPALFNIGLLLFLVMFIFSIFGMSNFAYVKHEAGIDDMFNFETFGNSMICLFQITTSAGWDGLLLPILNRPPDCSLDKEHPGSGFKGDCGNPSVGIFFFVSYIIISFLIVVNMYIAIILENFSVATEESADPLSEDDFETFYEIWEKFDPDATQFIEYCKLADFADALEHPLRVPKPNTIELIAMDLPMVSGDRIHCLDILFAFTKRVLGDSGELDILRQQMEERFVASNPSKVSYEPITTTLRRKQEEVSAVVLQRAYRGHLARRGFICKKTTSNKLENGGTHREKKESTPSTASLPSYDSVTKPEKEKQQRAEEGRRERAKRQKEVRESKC

In the case of `CCOC(F)(F)c1nnc2cnc(-c3cnc(OCC(F)(F)F)c(F)c3)cn12` [Compound 1, 3-(ethoxydifluoromethyl)-6-(5-fluoro-6-(2,2,2-trifluoroethoxy)pyridin-3-yl)-[1,2,4]triazolo[4,3-a]pyrazine], the IC50 in test [1] (hNaV1.6, ATX-II-evoked, holding −120 mV) was 141 nM. Also, the “preference for persistent INa relative to peak INa” value in test [1] (hNaV1.6, all assay conditions) is reported as “preference for persistent INa”. Besides, the “mice showing seizures after dosing” value in test [2] (10 mg/kg) is recorded as “no mice showing any seizures”. Moreover, the “seizure frequency compared to pre-treatment baseline” value in test [2] (1, 3 and 10 mg/kg p.o., 30 min after treatment) is recorded as “significant reduction”. Moreover, the “protection from spontaneous seizures (FIG. 14A)” value in test [2] (Scn2a Q54 DEE mouse model) is reported as “completely block seizures”. Besides, the “reduction in seizure frequency” value in test [2] (doses of 1 mg/kg and above) is listed as 50%.

In general, IC50 refers to the point on the concentration scale where inhibition reaches its midpoint.
